Experimental data: US20230355617A1, “SMALL MOLECULE INHIBITORS OF LEMUR TYROSINE KINASE 3” (The University of Sussex, priority 2020, published 2023)
pIC50: −log10 of the molar value. Where two headings read alike, the source gives them in different places. Where a SMILES comes first, the peptide text is derived from it. The star is where a group is joined. Cbz = O=C(OCc1ccccc1)*

Experiments:
FDCP1-parental = assay: FDCP1 cell-based model, parental cells; parameters: species or system murine
LMTK3 [1] = molecular target: T1, LMTK3 (Homo sapiens, UniProt Q96Q04); assay: 32P γ-ATP in vitro kinase assay, phosphorylation of HSP27 by LMTK3; format: biochemical; conditions: in vitro kinase assay; read-out: Approximate IC50
T1 construct: The wt kinase domain of LMTK3 (aa 134 to aa 444) was cloned into pOPINEneo; made in house; host or cells: Spodoptera frugiperda Sf9 (baculovirus)
T1 sequence (Q96Q04 105-415): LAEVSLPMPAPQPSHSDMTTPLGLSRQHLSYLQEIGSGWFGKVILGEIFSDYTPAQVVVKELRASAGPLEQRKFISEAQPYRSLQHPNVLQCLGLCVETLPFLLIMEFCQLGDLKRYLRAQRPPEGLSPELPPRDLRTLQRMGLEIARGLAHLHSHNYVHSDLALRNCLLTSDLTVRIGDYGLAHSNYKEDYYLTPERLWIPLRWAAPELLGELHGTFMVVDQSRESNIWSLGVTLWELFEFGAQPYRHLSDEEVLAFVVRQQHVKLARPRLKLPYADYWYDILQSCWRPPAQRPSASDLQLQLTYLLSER

[2] = Pharmacokinetics after single IV, IP or PO dose; format: in vivo, mice
LMTK3 [3] = molecular target: T2, LMTK3 (Homo sapiens, UniProt Q96Q04); assay: Western blotting of LMTK3 protein in BC cell lines; format: cell-based
T2 construct: endogenous in cells; host or cells: MCF7, T47D, MDA-MB-231
T2 sequence (Q96Q04 21-1460): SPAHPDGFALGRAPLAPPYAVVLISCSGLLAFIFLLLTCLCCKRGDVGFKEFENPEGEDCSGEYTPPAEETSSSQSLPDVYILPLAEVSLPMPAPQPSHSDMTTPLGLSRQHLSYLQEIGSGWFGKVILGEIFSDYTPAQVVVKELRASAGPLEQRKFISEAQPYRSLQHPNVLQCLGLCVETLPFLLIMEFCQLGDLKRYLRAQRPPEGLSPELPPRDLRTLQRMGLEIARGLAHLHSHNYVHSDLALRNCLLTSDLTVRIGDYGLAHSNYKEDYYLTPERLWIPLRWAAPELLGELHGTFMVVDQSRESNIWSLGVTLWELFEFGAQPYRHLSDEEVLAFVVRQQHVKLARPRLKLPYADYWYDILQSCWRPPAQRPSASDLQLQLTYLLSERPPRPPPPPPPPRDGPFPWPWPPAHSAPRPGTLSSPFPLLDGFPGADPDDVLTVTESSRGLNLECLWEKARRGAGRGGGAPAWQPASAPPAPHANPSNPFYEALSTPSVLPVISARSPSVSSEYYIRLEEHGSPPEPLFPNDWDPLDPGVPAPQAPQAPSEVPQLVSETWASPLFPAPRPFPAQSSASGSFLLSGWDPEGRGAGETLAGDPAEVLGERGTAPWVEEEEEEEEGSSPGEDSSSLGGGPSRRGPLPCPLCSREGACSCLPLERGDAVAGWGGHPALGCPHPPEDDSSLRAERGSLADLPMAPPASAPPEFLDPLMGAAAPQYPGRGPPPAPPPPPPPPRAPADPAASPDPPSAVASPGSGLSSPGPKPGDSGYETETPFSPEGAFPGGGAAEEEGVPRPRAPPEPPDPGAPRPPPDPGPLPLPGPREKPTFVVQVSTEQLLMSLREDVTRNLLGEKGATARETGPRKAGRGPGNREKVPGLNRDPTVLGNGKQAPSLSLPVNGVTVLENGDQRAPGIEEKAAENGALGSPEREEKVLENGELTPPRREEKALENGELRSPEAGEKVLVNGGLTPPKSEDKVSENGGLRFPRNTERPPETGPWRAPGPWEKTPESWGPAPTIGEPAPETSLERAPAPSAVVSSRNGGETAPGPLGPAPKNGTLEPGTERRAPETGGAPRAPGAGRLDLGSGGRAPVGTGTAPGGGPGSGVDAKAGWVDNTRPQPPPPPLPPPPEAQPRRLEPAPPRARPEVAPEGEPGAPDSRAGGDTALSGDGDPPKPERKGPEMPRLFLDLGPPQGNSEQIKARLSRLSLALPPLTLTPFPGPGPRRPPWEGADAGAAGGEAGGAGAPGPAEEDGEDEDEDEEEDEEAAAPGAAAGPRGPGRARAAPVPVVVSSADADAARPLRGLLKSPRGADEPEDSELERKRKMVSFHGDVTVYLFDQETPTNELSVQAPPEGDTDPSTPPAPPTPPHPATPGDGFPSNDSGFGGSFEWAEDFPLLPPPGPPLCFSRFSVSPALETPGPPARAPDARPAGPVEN

ERα = assay: Western blotting of ERα protein in BC cell lines; format: cell-based, human; conditions: MCF7, T47D, MDA-MB-231

Cc1ccc(-c2ccc3ncc(-c4cccc(OC(F)(F)F)c4)n3n2)cc1
pIC50 (FDCP1-parental; Mus musculus, FDC-P1; read-out: FDCP1-parental IC50): < 5.00

FC(F)(F)Oc1cccc(-c2cnc3ccc(Cl)nn23)c1
pIC50 (FDCP1-parental; Mus musculus, FDC-P1, read-out: FDCP1-parental IC50): < 5.00

FC(F)(F)Oc1cccc(-c2cnc3ccc(-c4ccccn4)nn23)c1 [Compound 337-1]
pIC50 (LMTK3 [1]): 6.40

FC(F)(F)Oc1cccc(-c2cnc3ccc(-c4ccncc4)nn23)c1 [Compound C28, 6-(Pyridin-4-yl)-3-(3-(trifluoromethoxy)phenyl)imidazo[1,2-b]pyridazine]
Cmax ([2]; IP 10 mg/kg): 0.839 µg/mL
T1/2 ([2]; IP 10 mg/kg): ~59 min
Cmax ([2]; IV 1 mg/kg): 0.185 µg/mL
T1/2 ([2]; IV 5 mg/kg): ~10 min
lethality of IV dose ([2]; IV 5 mg/kg): lethal for some mice
Cmax ([2]; IV 5 mg/kg, plasma): 1.533 µg/mL
time of peak concentration ([2]; IV 5 mg/kg, plasma): 5 min
Cmax ([2]; PO): 0.632 µg/mL
T1/2 ([2]; PO): ~62 min
peroral bioavailability (F) ([2]; based on incomplete data from 5 mg/kg IV group): 54%
inhibition of LMTK3 protein levels in cancer cell lines (LMTK3 [3]; MCF7, T47D, MDA-MB-231): best inhibitor
LMTK3 protein levels (LMTK3 [3]; MCF7, T47D, MDA-MB-231, increasing concentrations, different time points): time and dose-dependent degradation of LMTK3
LMTK3 ubiquitination (LMTK3 [3]; MCF7, 10 μM, 24 h): increased LMTK3 ubiquitination
ERα protein levels (ERα): decreased protein levels of ERα

CC(C)C[C@@H](C=O)NC(=O)[C@H](CC(C)C)NC(=O)[C@H](CC(C)C)NC(=O)OCc1ccccc1 [MG132, reference compound] (Cbz-Leu-Leu-Leu-aldehyde)
effect on C28-induced downregulation of LMTK3 (LMTK3 [3]; 10 μM MG132 4 h, then 10 μM C28 24 h): able to prevent C28-induced downregulation of LMTK3
